Results as given in patent publication US7173014B2, “HIV-specific synthetic oligonucleotides and methods of their use” (priority 1997, dated 2007).
d = 2'-deoxy (DNA); m = 2'-O-methyl

Assays:
HIV-1 (IIIB, RF and SK1) = assay: XTT-based anti-HIV assay, laboratory strains of HIV-1; assay type: cell-based
Text: (§1) The initial experiment performed involved evaluation of Oligos 12, 32, and 41 against three laboratory strains of HIV-1 (IIIB, RF and SK1) and one strain of HIV-2 (ROD) in parallel with the positive control compound ddC in the XTT-based anti-HIV assay. All these oligonucleotides are active against both HIV-1 and HIV-2.
CEM-SS sells (AIDS Research and Reference Reagent Program, NIH) or other established human T cell lines used in these experiments were passaged in T-150 flasks for use in the assay. On the day preceding the assay, the cells were split 1:2 to assure they would be in an exponential growth phase at time of infection. On the day of assay the cells were washed twice with tissue culture medium and resuspended in fresh tissue cultures medium. Total cell and viability counting was performed using a hemacytometer and trypan blue dye exclusion. Cell viability was greater than 95% for the cells to be utilized in the assay. The cells were pelleted and resuspended at 2.5×10^4 cells per ml in tissue culture medium. […]
A pretitered aliquot of virus was removed from the freezer −80° C.) and allowed to thaw slowly to room temperature in a biological safety cabinet. The virus was resuspended and diluted into tissue culture medium such that the amount of virus added to each well in a volume of 50 μl will be the amount determined to give complete cell killing at 6 days post-infection. […]
After 6 days of incubation at 37° C. in a 5% CO2 incubator, the test plates were analyzed by staining with the tetrazolium dye XTT. XTT-tetrazolium is metabolized by the mitochondrial enzymes of metabolically active cells to a soluble formazan product, allowing the rapid quantitative analysis of the inhibition of HIV-induced cell killing by anti-HIV test substances. […]
XTT solution was prepared daily as a stock of 1 mg/ml in PBS. […] Adhesive plate sealers were used in place of the lids, the sealed plate was inverted several times to mix the soluble formazan product and the plate was read spectrophotometrically at A450 nm with a Molecular Devices Vmax plate reader.

HIV-2 (ROD) = assay: XTT-based anti-HIV assay, HIV-2; assay type: cell-based; conditions: for level of activity against the HIV-2 strain ROD: compared with the HIV-1 strains; for level of activity against the HIV-2 strain ROD / activity against HIV-2: XTT assay; for activity against HIV-2: strain ROD
Text: as §1
CEM-SS sells (AIDS Research and Reference Reagent Program, NIH) or other established human T cell lines used in these experiments were passaged in T-150 flasks for use in the assay. On the day preceding the assay, the cells were split 1:2 to assure they would be in an exponential growth phase at time of infection. On the day of assay the cells were washed twice with tissue culture medium and resuspended in fresh tissue cultures medium. Total cell and viability counting was performed using a hemacytometer and trypan blue dye exclusion. Cell viability was greater than 95% for the cells to be utilized in the assay. The cells were pelleted and resuspended at 2.5×10^4 cells per ml in tissue culture medium. Cells were added to the drug-containing plates in a volume of 50 μl.
A pretitered aliquot of virus was removed from the freezer −80° C.) and allowed to thaw slowly to room temperature in a biological safety cabinet. The virus was resuspended and diluted into tissue culture medium such that the amount of virus added to each well in a volume of 50 μl will be the amount determined to give complete cell killing at 6 days post-infection. In general the virus pools produced with the IIIB isolate of HIV required the addition of 5 μl of virus per well.
Each plate contained cell control wells (cells only), virus control wells (cells plus virus), drug toxicity control wells (cells plus drug only), drug colorimetric control wells (drug only) as well as experimental wells (drug plus cells plus virus).
After 6 days of incubation at 37° C. in a 5% CO2 incubator, the test plates were analyzed by staining with the tetrazolium dye XTT. XTT-tetrazolium is metabolized by the mitochondrial enzymes of metabolically active cells to a soluble formazan product, allowing the rapid quantitative analysis of the inhibition of HIV-induced cell killing by anti-HIV test substances. On day 6 post-infection plates were removed from the incubator and observed. The use of round bottom microtiter plates allows rapid macroscopic analysis of the activity of a given test compound by the evaluation of pellet size. The results of the macroscopic observations were confirmed and enhanced by further microscopic analysis.
XTT solution was prepared daily as a stock of 1 mg/ml in PBS. Phenazine methosulfate (PMS) solution was prepared at 15 mg/ml in PBS and stored in the dark at −20° C. XTT/PMS stock was prepared immediately before use by diluting the PMS 1:100 into PBS and adding 40 μl per ml of XTT solution. Fifty microliters of XTT/PMS was added to each well of the plate and the plate was incubated for an additional 4 hours at 37° C. Adhesive plate sealers were used in place of the lids, the sealed plate was inverted several times to mix the soluble formazan product and the plate was read spectrophotometrically at A450 nm with a Molecular Devices Vmax plate reader.

[1] = test system: low passage, clinical strains of HIV-1; assay: Anti-HIV activity in fresh human peripheral blood mononuclear cells; assay type: cell-based; conditions: fresh human PBMC; varies from strain to strain
Experimental: In another experiment, the anti-HIV activity of Oligos 12, 32, and 41 was evaluated against a variety of low passage, clinical strains of HIV-1 in fresh human peripheral blood mononuclear cells. These strains include viruses obtained from pediatric patients attending the Children's Hospital University of Alabama at Birmingham as well as viruses representative of the various HIV-1 clades found throughout the world, shown below in TABLE 4.
Fresh human peripheral blood lymphocytes (PBL) were isolated from voluntary Red Cross donors, seronegative for HIV and HBV. Leukophoresed blood was diluted 1:1 with Dulbecco's phosphate buffered saline (PBS), layered over 14 ml of Ficoll-Hypaque density gradient in a 50 ml centrifuge tube. Tubes were then centrifuged for 30 minutes at 600×g. Banded PBLs were gently aspirated from the resulting interface and subsequently washed 2× with PBS by low speed centrifugation. After final wash, cells were enumerated by trypan blue exclusion and re-suspended at 1×10^7/ml in RPMI 1640 with 15% Fetal Bovine Serum (FBS), 2 mM L-glutamine, […] PHA-P and allowed to incubate for 48–72 hours at 37° C. After incubation, PBLs were centrifuged and reset in RPMI 1640 with 15% FBS, 2 mM L-glutamine, 100 U/ml penicillin, 100 μg/ml streptomycin, 10 μg/ml gentamycin, and 20 U/ml recombinant human IL-2. PBLs were maintained in this medium at a concentration of 1–2×10^6/ml with bi-weekly medium changes, until use in assay protocol. […]
In the standard PBL assay (MOI: 0.2), the assay was ended on day 7 following collection of cell free supernatant samples for reverse transcriptase activity assay. In the low MOI PBL assay (MOI: 0.02), supernatant samples were collected on day 6, day 11, and day 14 post-infection and analyzed for RT activity. […] Opti-Fluor O was added to each sample and incorporated radioactivity was quantified utilizing a liquid scintillation counter, (Wallac 1450 Microbetaplus, Gaithersburg, Md.).

[2] = test system: monocyte-macrophage-tropic strains BaL and ADA; assay: Anti-HIV assay in fresh human monocyte-macrophages; assay type: cell-based, HIV-1
Experimental: In addition to these T-tropic strains, the activity of the compounds was also evaluated against the monocyte-macrophage strains BaL and ADA. Oligos 12 and 32 according to the invention, as well as Oligo 41 are active against low passage clinical T-tropic strains of HIV-1. The activity of the compounds varies from strain to strain. The compounds were not active against the monocyte-macrophage-tropic strains BaL and ADA.
For isolation of adherent cells, 3×10^6 non-PHA stimulated peripheral blood cells were resuspended in Hanks buffered saline (with calcium and magnesium) supplemented with 10% human AB serum. The cells were placed in a 24-well microtiter plate at 37° C. for 2 hours. Non-adherent cells were removed by vigorously washing six times. The adherent cells were cultured for 7 days in RPMI 1640 tissue culture medium with 15% fetal bovine serum. The cultures were carefully monitored for confluency during this incubation period. Infection of the cells was performed with the monocytotropic HIV-1 strains BaL or ADA and the matched pair of AZT-sensitive and AZT-resistant virus isolates. Each of these virus isolates was obtained from the NIAID AIDS Research and Reference Reagent Program. High titer pools of each of these viruses have been harvested from infected cultures of peripheral blood adherent cells and frozen in 1.0 ml aliquots at −80° C. Monocyte-macrophage monolayers were infected at an MOI of 0.1. Compounds to be evaluated in the monocyte-macrophage assay are added to the monolayers shortly before infection in order to maximize the potential for identifying active compounds.
At 2 days post-infection, the medium was decanted and the cultures washed twice with complete medium in order to remove excess virus. […] Control curves are generated in each assay to accurately quantify the amount of capsid protein in each sample. Data was obtained by spectrophotometric analysis at 450 nm using a plate reader (Molecular Devices Vmax). P24 concentrations were calculated from the optical density values by use of the Molecular Device software package Soft Max.

[3] = In vivo bioavailability after a single dose, rats; conditions: intravenous and oral
[4] = In vivo bioavailability after a single dose, monkeys; conditions: intravenous and oral
HIV-1 IIB = assay: CPE-based inhibition of acute infection of MT-4 cells (MTT); assay type: cell-based
Experimental: CPE based infection experiments were performed using MT-4 cells (Pauwels et al. (1988) J. Virol. Meth. 20:309; Papp et al. (1997) AIDS Research and Human Retroviruses In Press). MT-4 cells were obtained from the AIDS Research and Reference Reagent Bank, Division of AIDS, NIAID, NIH contributed Dr. Richman (Pauwels et al. (1988) J. Virol. Meth. 20:309) T-lymphoid H9 (HUT-78) cells were obtained from Dr. Robert Gallo, National Cancer Institute, Bethesda, Md. (Popovic et al. (1984) Science 224:497; Gazdar et al. (1980) Blood 55:409). Cell cultures were maintained in RPMI 1640 medium (GIBCO Laboratories, Grand Island, N.Y.) supplemented with 20% (H9 cells), or 10% (MT-4 cells) heat-inactivated fetal bovine serum (Sigma Chemical Co., St. Louis, Mo.) 250 units/ml penicillin, 250 μg/ml streptomycin, 2 mM 1-glutamine, and 10 mM HEPES (N-2-hydroxyethylpiperazine-N′-2-ethanesulfonic acid) buffer (complete medium) at 37° C. in 5% CO2. HIV-1 IIB was originally obtained from Dr. Robert Gallo, National Cancer Institute (Popovic (1984) Science 224:497). Virus stocks of HIV-1 were prepared from cell-free filtered supernatant of chronically infected H9 cultures by the shaking method as previously described by Vujoie et al. (J. Infectious Diseases (1988) 157:1047).
Experiments were performed under two sets of conditions. […] The cultures were incubated for 6 days and CPE measured using the MTT dye method. […]

Substance | activity against HIV-1 (HIV-1 (IIIB, RF and SK1)) | level of activity against the HIV-2 strain ROD (HIV-2 (ROD)) | activity against HIV-2 (HIV-2 (ROD)) | activity against low passage clinical T-tropic strains of HIV-1 [1] | activity against monocyte-macrophage-tropic strains BaL and ADA [2] | bioavailability [3] | bioavailability [4] | inhibition of HIV-2-induced cell killing (HIV-2 (ROD); XTT assay (FIG. 3)) | inhibition of HIV-1 infection (HIV-1 IIB; MT-4 cells treated during initial infection (FIG. 1)) | inhibition of HIV-1 infection (HIV-1 IIB; MT-4 cells treated following initial infection, post-viral adsorption (FIG. 2))
CGCACCCATCTCTCTCCUUCU (chemistry not given here) [Oligo 32] | active | enhanced level of activity | active | active | not active | – | – | – | – | –
UCGCACCCATCTCTCTCCUUC (chemistry not given here) [Oligo 12] | active | enhanced level of activity | active | active | not active | intravenously and orally bioavailable | intravenously and orally bioavailable | – | – | –
4×4: 21mer phosphorothioate linked oligonucleotide, deoxyribonucleotides flanked on each side by four 2′-O-methyl ribonucleotides; SEQ ID NO:1 (UCGCACCCATCTCTCTCCUUC; sugars from the 5' end m4 d13 m4, all phosphorothioate, methylation of C not given here) | – | – | – | – | – | – | – | inhibit HIV-2-induced cell killing | inhibition of HIV-1 infection | inhibition of HIV-1 infection
